Measurements published in patent US7087717B2, “Sp110, a polypeptide component of the nuclear body” (The General Hospital Corporation, priority 2000, dated 2006).

How the values were obtained:
NB4 cells = test: Sp110 mRNA level by RNA blot after cellular differentiation; format: cell-based, human; settings: 1 μM, 48 hours
Description: To investigate the expression of Sp110 in cells of the monocyte/granulocyte lineage, RNA was prepared from the myeloid precursor cell lines HL60 and NB4 (HL60 cells are available from the American Type Culture Collection, Manassas, Va.). […] RNA was fractionated in formaldehyde-agarose gels (5 μg/lane) and equal loading of RNA was confirmed by staining 28S and 18S ribosomal RNA with ethidium bromide. […] Membranes were washed and analyzed by autoradiography. […] To examine the effect of cellular differentiation on Sp110 mRNA, NB4 cells were treated for 48 hours with all trans retinoic acid (ATRA) (1 μM).

[1] = tested on: human coronary artery smooth muscle cells (hCASMCs) and human umbilical vein endothelial cells (HUVECs); test: Sp110 mRNA expression after cytokine exposure; format: cell-based; settings: 200 u/ml
Description: Sp110 expression was also examined in human coronary artery smooth muscle cells (hCASMCs) and human umbilical vein endothelial, cells (HUVECs) following exposure to IFNα (200 u/ml). Expression of Sp110 mRNA was induced within 4 hours and reached a maximum level between 8 and 24 hours.

| Compound | level of Sp110 mRNA (NB4 cells) | time to induction of Sp110 mRNA expression [1] |
| --- | --- | --- |
| CC1=C(/C=C/C(C)=C/C=C/C(C)=C/C(=O)O)C(C)(C)CCC1 [ATRA, all trans retinoic acid] | increased | – |
| IFNα | – | ≤ 4 h |
